Laboratory results from article PMC5130005, “Indolin-2-one compounds targeting thioredoxin reductase as potential anticancer drug leads” (Oncotarget, 2016).

Columns and labels:
recombinant rat TrxR = biological target: T1, recombinant rat TrxR (Rattus norvegicus, UniProt O89049); assay: in vitro TrxR DTNB reduction assay; assay type: biochemical; conditions: 30 min incubation, 100 nM recombinant rat TrxR, 200 μM NADPH, read-out: TrxR inhibition IC50
T1 construct: made in house
T1 sequence (O89049 1-499): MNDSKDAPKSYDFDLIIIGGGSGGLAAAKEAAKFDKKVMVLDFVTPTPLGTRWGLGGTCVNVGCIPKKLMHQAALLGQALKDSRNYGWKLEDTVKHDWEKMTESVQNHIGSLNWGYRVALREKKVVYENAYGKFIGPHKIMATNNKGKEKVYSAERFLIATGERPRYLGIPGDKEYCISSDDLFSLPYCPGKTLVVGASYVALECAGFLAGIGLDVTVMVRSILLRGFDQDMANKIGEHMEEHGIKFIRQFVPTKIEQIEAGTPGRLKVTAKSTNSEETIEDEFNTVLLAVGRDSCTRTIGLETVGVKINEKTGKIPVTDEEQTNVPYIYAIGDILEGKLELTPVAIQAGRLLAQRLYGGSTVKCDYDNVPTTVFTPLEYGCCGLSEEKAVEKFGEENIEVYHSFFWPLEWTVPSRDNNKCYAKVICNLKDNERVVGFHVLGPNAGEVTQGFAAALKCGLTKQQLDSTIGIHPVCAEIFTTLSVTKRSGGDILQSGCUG
Experimental: In a volume of 100 μl of 50 mM Tris-HCl pH 7.5, 2 mM EDTA buffer (TE buffer), compounds of concentrations 1-100 μM were incubated with 100 nM recombinant rat TrxR and 200 μM NADPH at room temperature in 96-well plates for 30 and 60 min. The incubation was terminated by addition of 100 μl per well of 10 mM DTNB, 200 μM NADPH solution in TE buffer and immediately followed by measurement of linear increase of absorbance at 412 nm for the initial 2 min using the VersaMax microplate reader (Molecular Devices). The results were expressed as % of TrxR activity of drug-treated sample over that of DMSO control. The 50% inhibition concentration (IC50) values were calculated.

bovine GPx = biological target: T2, bovine GPx (Bos taurus, UniProt P00435); assay: in vitro bovine GPx activity assay; assay type: biochemical; conditions: 60 min incubation, 1-100 μM, 100 nM bovine GPx
T2 construct: purchased Sigma
T2 sequence (P00435 1-205): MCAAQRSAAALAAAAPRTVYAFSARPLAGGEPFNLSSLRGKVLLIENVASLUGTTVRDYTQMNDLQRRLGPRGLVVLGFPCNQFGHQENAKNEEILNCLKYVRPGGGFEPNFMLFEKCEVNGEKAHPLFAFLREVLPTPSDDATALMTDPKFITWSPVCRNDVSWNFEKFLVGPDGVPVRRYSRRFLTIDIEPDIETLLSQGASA
Experimental: For determination of in vitro bovine GPx activity, compounds of concentrations 1-100 μM were incubated with 100 nM bovine GPx, 20 nM yeast GR, 1 mM GSH and 200 μM NADPH in a volume of 100 μl phosphate buffer (0.1 M sodium phosphate, 2 mM EDTA pH 7.5) for 1 h at room temperature. H2O2 solution in phosphate buffer was added to initiate the reaction (final concentration 1.5 mM). NADPH consumption was monitored at 340 nm using the VersaMax microplate reader. The cellular GPx activity was determined similarly except lysates of HCT 116 and MCF-7 cells (25 μg protein) were used instead of bovine GPx. The results were calculated based on decrease in absorbance in the initial 3 min and presented as % of GPx activity of drug-treated sample over that of DMSO-treated sample.

Row | SMILES | IC50 (recombinant rat TrxR) [µM] | bovine GPx activity (bovine GPx)
1 | CC(=O)C=C1C(=O)N(C)c2ccccc21 [Compound 1, 1-methyl-3(2-oxopropylidene)indolin-2-one] | 22.1 ± 1.8 | uninhibited
2 | CCCCN1C(=O)/C(=C/C(C)=O)c2ccccc21 [Compound 4] | 8.6 ± 0.9 | uninhibited
3 | CC(=O)/C=C1/C(=O)N(Cc2ccccc2)c2ccccc21 [Compound 5] | 6.2 ± 1.7 | uninhibited
4 | CN1C(=O)/C(=C/C(=O)c2ccccc2)c2ccccc21 [Compound 6] | 14.7 ± 3.2 | uninhibited
